In patent US9504669B2, “Spliceostatin analogs and methods for their preparation” (PFIZER INC., priority 2012, dated 2016):

How the values were obtained:
Format in all cases: cell-based
[1] = tested on: MDA-MB-361-DYT2 (breast cancer) cells; assay: In vitro cell assay (MTS cell viability), MDA-MB-361-DYT2; details: 96 h, free compounds (natural products and synthetic analogs); cell viability 96 hours after treatment
How it was run: (§1)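 Cells seeded 24 h, then treated with antibody-drug conjugates or free drug, 3-fold serial dilutions at 10 concentrations in duplicate. Viability by MTS at 96 h as percent of untreated control; IC50 from four-parameter logistic fit.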

[2] = tested on: BT474 (breast cancer) cells; assay: In vitro cell assay (MTS cell viability), BT474; details: Homo sapiens, BT-474; free compounds (natural products and synthetic analogs); cell viability 96 hours after treatment
Experimental: Target expressing (BT474 (breast cancer), N87 (gastric cancer), HCC1954 (breast cancer), MDA-MB-361-DYT2 (breast cancer)) or non-expressing (MDA-MB-468) cells were seeded in 96-well cell culture plates for 24 hours before treatment. Cells were treated with 3-fold serially diluted antibody-drug conjugates or free compounds (i.e., no antibody conjugated to the drug) in duplicate at 10 concentrations. Cell viability was determined by CellTiter 96® AQueous One Solution Cell Proliferation MTS Assay (Promega, Madison Wis.) 96 hours after treatment. Relative cell viability was determined as percentage of untreated control. IC50 values were calculated using a four parameter logistic model #203 with XLfit v4.2 (IDBS, Guildford, Surry, UK). The potency ranged upward from 0.0002 nm. Similar procedures and techniques were employed.

[3] = tested on: N87 (gastric cancer) cells; assay: In vitro cell assay (MTS cell viability), N87; details: 96 h, free compounds (natural products and synthetic analogs); cell viability 96 hours after treatment
How it was run: as §1

| Structure (SMILES) | IC50 [1] [nM] | IC50 [2] [nM] | IC50 [3] [nM] |
| --- | --- | --- | --- |
| CC(/C=C/[C@@H]1C[C@]2(CO2)C[C@@H](CC(N)=O)O1)=C\C[C@@H]1O[C@H](C)[C@H](NC(=O)/C=C\[C@H](C)O)C[C@@H]1C [#B39, (2Z,4S)—N-[(2R,3R,5S,6S)-6-{(2E,4E)-5-[(3S,5S,7S)-7-(2-amino-2-oxoethyl)-1,6-dioxaspiro[2.5]oct-5-yl]-3-methylpenta-2,4-dien-1-yl}-2,5-dimethyltetrahydro-2H-pyran-3-yl]-4-hydroxypent-2-enamide] | 7.67 | 3.4 | 4.65 |
| CC(/C=C/[C@@H]1C[C@]2(CO2)C[C@@H](CC(N)=O)O1)=C\C[C@@H]1O[C@H](C)[C@H](NC(=O)/C=C\[C@H](C)OC(=O)N2CCCCC2)C[C@@H]1C [#B40, (2S,3Z)-5-{[(2R,3R,5S,6S)-6-{(2E,4E)-5-[(3S,5S,7S)-7-(2-amino-2-oxoethyl)-1,6-dioxaspiro[2.5]oct-5-yl]-3-methylpenta-2,4-dien-1-yl}-2,5-dimethyltetrahydro-2H-pyran-3-yl]amino}-5-oxopent-3-en-2-yl piperidine-1-carboxylate] | 5.84 | 1.86 | 6.76 |
| COC(=O)C[C@@H]1C[C@@]2(CO2)[C@H](O)[C@@H](/C=C/C(C)=C/C[C@@H]2O[C@H](C)[C@H](NC(=O)/C=C\[C@H](C)OC(C)=O)C[C@@H]2C)O1 [#B55, methyl [(3R,5S,7R,8R)-7-{(1E,3E)-5-[(2S,3S,5R,6R)-5-{[(2Z,4S)-4-(acetyloxy)pent-2-enoyl]amino}-3,6-dimethyltetrahydro-2H-pyran-2-yl]-3-methylpenta-1,3-dien-1-yl}-8-hydroxy-1,6-dioxaspiro[2.5]oct-5-yl]acetate] | 1.26 | 0.879 | 0.822 |
| CCCNC(=O)C[C@@H]1C[C@@]2(CO2)[C@H](O)[C@@H](/C=C/C(C)=C/C[C@@H]2O[C@H](C)[C@H](NC(=O)/C=C\[C@H](C)OC(=O)C(C)C)C[C@@H]2C)O1 [#B71, (2S,3Z)-5-({(2R,3R,5S,6S)-6-[(2E,4E)-5-{(3R,4R,5R,7S)-4-hydroxy-7-[2-oxo-2-(propylamino)ethyl]-1,6-dioxaspiro[2.5]oct-5-yl}-3-methylpenta-2,4-dien-1-yl]-2,5-dimethyltetrahydro-2H-pyran-3-yl}amino)-5-oxopent-3-en-2-yl 2-methylpropanoate] | 1.36 | 1.08 | 0.451 |
| CC(=O)O[C@@H](C)/C=C\C(=O)N[C@@H]1C[C@H](C)[C@H](C/C=C(C)/C=C/[C@H]2O[C@H](CC(=O)N3CCCCC3)C[C@@]3(CO3)[C@@H]2O)O[C@@H]1C [#B72, (2S,3Z)-5-({(2R,3R,5S,6S)-6-[(2E,4E)-5-{(3R,4R,5R,7S)-4-hydroxy-7-[2-oxo-2-(piperidin-1-yl)ethyl]-1,6-dioxaspiro[2.5]oct-5-yl}-3-methylpenta-2,4-dien-1-yl]-2,5-dimethyltetrahydro-2H-pyran-3-yl}amino)-5-oxopent-3-en-2-yl acetate] | 1.16 | 0.607 | 0.481 |
| CC(=O)O[C@@H](C)/C=C\C(=O)N[C@@H]1C[C@H](C)[C@H](C/C=C(C)/C=C/[C@@H]2C[C@]3(CO3)C[C@@H](CC(=O)NC(C)(C)C(=O)O)O2)O[C@@H]1C [#B79, N-{[(3S,5S,7S)-7-{(1E,3E)-5-[(2S,3S,5R,6R)-5-{[(2Z,4S)-4-(acetyloxy)pent-2-enoyl]amino}-3,6-dimethyltetrahydro-2H-pyran-2-yl]-3-methylpenta-1,3-dien-1-yl}-1,6-dioxaspiro[2.5]oct-5-yl]acetyl}-2-methylalanine] | 1.31 | 0.723 | 0.423 |
| CSCCN(C)C(=O)C[C@@H]1C[C@@]2(CO2)[C@H](O)[C@@H](/C=C/C(C)=C/C[C@@H]2O[C@H](C)[C@H](NC(=O)/C=C\[C@H](C)OC(C)=O)C[C@@H]2C)O1 [#B82, (2S,3Z)-5-{[(2R,3R,5S,6S)-6-{(2E,4E)-5-[(3R,4R,5R,7S)-4-hydroxy-7-(2-{methyl[2-(methylsulfanyl)ethyl]amino}-2-oxoethyl)-1,6-dioxaspiro[2.5]oct-5-yl]-3-methylpenta-2,4-dien-1-yl}-2,5-dimethyltetrahydro-2H-pyran-3-yl]amino}-5-oxopent-3-en-2-yl acetate] | 0.251 | 0.288 | 0.12 |
| CNc1cccc(CNC(=O)C[C@@H]2C[C@@]3(CO3)[C@H](O)[C@@H](/C=C/C(C)=C/C[C@@H]3O[C@H](C)[C@H](NC(=O)/C=C\[C@H](C)OC(C)=O)C[C@@H]3C)O2)c1 [#B83, (2S,3Z)-5-{[(2R,3R,5S,6S)-6-{(2E,4E)-5-[(3R,4R,5R,7S)-4-hydroxy-7-(2-{[3-(methylamino)benzyl]amino}-2-oxoethyl)-1,6-dioxaspiro[2.5]oct-5-yl]-3-methylpenta-2,4-dien-1-yl}-2,5-dimethyltetrahydro-2H-pyran-3-yl]amino}-5-oxopent-3-en-2-yl acetate] | 2.59 | 1.45 | 1.05 |
| CC(=O)O[C@@H](C)/C=C\C(=O)N[C@@H]1C[C@H](C)[C@H](C/C=C(C)/C=C/[C@H]2O[C@H](CC(=O)NCc3ccc(N)cc3F)C[C@@]3(CO3)[C@@H]2O)O[C@@H]1C [#B84, (2S,3Z)-5-{[(2R,3R,5S,6S)-6-{(2E,4E)-5-[(3R,4R,5R,7S)-7-{2-[(4-amino-2-fluorobenzyl)amino]-2-oxoethyl}-4-hydroxy-1,6-dioxaspiro[2.5]oct-5-yl]-3-methylpenta-2,4-dien-1-yl}-2,5-dimethyltetrahydro-2H-pyran-3-yl]amino}-5-oxopent-3-en-2-yl acetate] | 8.27 | 2.53 | 2.54 |
| CC(=O)O[C@@H](C)/C=C\C(=O)N[C@@H]1C[C@H](C)[C@H](C/C=C(C)/C=C/[C@H]2O[C@H](CC(=O)NCc3ccc(N)c(F)c3)C[C@@]3(CO3)[C@@H]2O)O[C@@H]1C [#B85, (2S,3Z)-5-{[(2R,3R,5S,6S)-6-{(2E,4E)-5-[(3R,4R,5R,7S)-7-{2-[(4-amino-3-fluorobenzyl)amino]-2-oxoethyl}-4-hydroxy-1,6-dioxaspiro[2.5]oct-5-yl]-3-methylpenta-2,4-dien-1-yl}-2,5-dimethyltetrahydro-2H-pyran-3-yl]amino}-5-oxopent-3-en-2-yl acetate] | 5.5 | 1.47 | 1.56 |
| CC(=O)O[C@@H](C)/C=C\C(=O)N[C@@H]1C[C@H](C)[C@H](C/C=C(C)/C=C/[C@H]2O[C@H](CC(=O)NCc3ccc(N)c(C(F)(F)F)c3)C[C@@]3(CO3)[C@@H]2O)O[C@@H]1C [#B88, (2S,3Z)-5-{[(2R,3R,5S,6S)-6-{(2E,4E)-5-[(3R,4R,5R,7S)-7-(2-{[4-amino-3-(trifluoromethyl)benzyl]amino}-2-oxoethyl)-4-hydroxy-1,6-dioxaspiro[2.5]oct-5-yl]-3-methylpenta-2,4-dien-1-yl}-2,5-dimethyltetrahydro-2H-pyran-3-yl]amino}-5-oxopent-3-en-2-yl acetate] | 2.96 | 1.8 | 0.73 |
| CC(=O)O[C@@H](C)/C=C\C(=O)N[C@@H]1C[C@H](C)[C@H](C/C=C(C)/C=C/[C@H]2O[C@H](CC(=O)NCc3cccc(N)c3)C[C@@]3(CO3)[C@@H]2O)O[C@@H]1C [#B89, (2S,3Z)-5-{[(2R,3R,5S,6S)-6-{(2E,4E)-5-[(3R,4R,5R,7S)-7-{2-[(3-aminobenzyl)amino]-2-oxoethyl}-4-hydroxy-1,6-dioxaspiro[2.5]oct-5-yl]-3-methylpenta-2,4-dien-1-yl}-2,5-dimethyltetrahydro-2H-pyran-3-yl]amino}-5-oxopent-3-en-2-yl acetate] | 7.99 | 3.56 | 1.91 |
| CC(=O)O[C@@H](C)/C=C\C(=O)N[C@@H]1C[C@H](C)[C@H](C/C=C(C)/C=C/[C@H]2O[C@H](CC(=O)N(C)Cc3ccc(S(=O)(=O)N(C)C)cc3)C[C@@]3(CO3)[C@@H]2O)O[C@@H]1C [#B91, (2S,3Z)-5-{[(2R,3R,5S,6S)-6-{(2E,4E)-5-[(3R,4R,5R,7S)-7-(2-{[4-(dimethylsulfamoyl)benzyl](methyl)amino}-2-oxoethyl)-4-hydroxy-1,6-dioxaspiro[2.5]oct-5-yl]-3-methylpenta-2,4-dien-1-yl}-2,5-dimethyltetrahydro-2H-pyran-3-yl]amino}-5-oxopent-3-en-2-yl acetate] | 3.78 | 3.02 | 0.783 |
| CC(=O)O[C@@H](C)/C=C\C(=O)N[C@@H]1C[C@H](C)[C@H](C/C=C(C)/C=C/[C@H]2O[C@H](CC(=O)NCc3cc(N)ccc3F)C[C@@]3(CO3)[C@@H]2O)O[C@@H]1C [#B92, (2S,3Z)-5-{[(2R,3R,5S,6S)-6-{(2E,4E)-5-[(3R,4R,5R,7S)-7-{2-[(5-amino-2-fluorobenzyl)amino]-2-oxoethyl}-4-hydroxy-1,6-dioxaspiro[2.5]oct-5-yl]-3-methylpenta-2,4-dien-1-yl}-2,5-dimethyltetrahydro-2H-pyran-3-yl]amino}-5-oxopent-3-en-2-yl acetate] | 6.18 | 2.28 | 1.5 |
